Laboratory results reported in patent publication US20080132509A1, “Substituted Biaryl Analogues” (Neurogen Corporation, priority 2004, published 2008).

molecular target: T1, human capsaicin receptor (Homo sapiens, UniProt Q8NER1); assay: Calcium mobilization assay, determination of antagonist activity; format: cell-based; conditions: cells expressing human capsaicin receptor, capsaicin at EC50, FLUO-3 fluorescence; read-out: IC50 (antag.)
T1 construct: expressed in transfected cells
Procedure: (§1) A cDNA encoding full length human capsaicin receptor (SEQ ID NO: 1, 2 or 3 of U.S. Pat. No. 6,482,611) was subcloned in the plasmid pBK-CMV (Stratagene, La Jolla, Calif.) for recombinant expression in mammalian cells.
(§2) Human embryonic kidney (HEK293) cells were transfected with the pBK-CMV expression construct encoding the full length human capsaicin receptor using standard methods. The transfected cells were selected for two weeks in media containing G418 (400 μg/ml) to obtain a pool of stably transfected cells. Independent clones were isolated from this pool by limiting dilution to obtain clonal stable cell lines for use in subsequent experiments.
(§3) Cells transfected with expression plasmids (as described in Example 4) and thereby expressing human capsaicin receptor are seeded and grown to 70-90% confluency in FALCON black-walled, clear-bottomed 96-well plates (#3904, BECTON-DICKINSON, Franklin Lakes, N.J.). The culture medium is emptied from the 96 well plates and FLUO-3 AM calcium sensitive dye (Molecular Probes, Eugene, Oreg.) is added to each well (dye solution: 1 mg FLUO-3 AM, 440 μL DMSO and 440 μ20% pluronic acid in DMSO, diluted 1:250 in Krebs-Ringer HEPES (KRH) buffer (25 mM HEPES, 5 mM KCl, 0.96 mM NaH2PO4, 1 mM MgSO4, 2 mM CaCl2, 5 mM glucose, 1 mM probenecid, pH 7.4), 50 μl diluted solution per well). Plates are covered with aluminum foil and incubated at 37° C. for 1-2 hours in an environment containing 5% CO2. After the incubation, the dye is emptied from the plates, and the cells are washed once with KRH buffer, and resuspended in KRH buffer.
To measure the ability of a test compound to agonize or antagonize a calcium mobilization response in cells expressing capsaicin receptors to capsaicin or other vanilloid agonist, the EC50 of the agonist capsaicin is first determined. An additional 20 μl of KRH buffer and 1 μl DMSO is added to each well of cells, prepared as described above. 100 μl capsaicin in KRH buffer is automatically transferred by the FLIPR instrument to each well. Capsaicin-induced calcium mobilization is monitored using either FLUOROSKAN ASCENT (Labsystems; Franklin, Mass.) or FLIPR (fluorometric imaging plate reader system; Molecular Devices, Sunnyvale, Calif.) instruments. Data obtained between 30 and 60 seconds after agonist application are used to generate an 8-point concentration response curve, with final capsaicin concentrations of 1 nM to 3 μM. KALEIDAGRAPH software (Synergy Software, Reading, Pa.) is used to fit the data to the equation: […]
to determine the 50% excitatory concentration (EC50) for the response. In this equation, y is the maximum fluorescence signal, x is the concentration of the agonist or antagonist (in this case, capsaicin), a is the Emax, b corresponds to the EC50 value and c is the Hill coefficient.
Test compounds are dissolved in DMSO, diluted in 20 μl KRH buffer so that the final concentration of test compounds in the assay well is between 1 μM and 5 μM, and added to cells prepared as described above. The 96 well plates containing prepared cells and test compounds are incubated in the dark, at room temperature for 0.5 to 6 hours. It is important that the incubation not continue beyond 6 hours. Just prior to determining the fluorescence response, 100 μl capsaicin in KRH buffer at twice the EC50 concentration determined as described above is automatically added by the FLIPR instrument to each well of the 96 well plate for a final sample volume of 200 μl and a final capsaicin concentration equal to the EC50. The final concentration of test compounds in the assay wells is between 1 μM and 5 μM. […] The concentration of antagonist required to provide a 50% decrease, relative to the response observed in the presence of capsaicin and without antagonist, is the IC50 for the antagonist, and is preferably below 1 micromolar, 100 nanomolar, 10 nanomolar or 1 nanomolar.

T1 sequence (Q8NER1 whole entry): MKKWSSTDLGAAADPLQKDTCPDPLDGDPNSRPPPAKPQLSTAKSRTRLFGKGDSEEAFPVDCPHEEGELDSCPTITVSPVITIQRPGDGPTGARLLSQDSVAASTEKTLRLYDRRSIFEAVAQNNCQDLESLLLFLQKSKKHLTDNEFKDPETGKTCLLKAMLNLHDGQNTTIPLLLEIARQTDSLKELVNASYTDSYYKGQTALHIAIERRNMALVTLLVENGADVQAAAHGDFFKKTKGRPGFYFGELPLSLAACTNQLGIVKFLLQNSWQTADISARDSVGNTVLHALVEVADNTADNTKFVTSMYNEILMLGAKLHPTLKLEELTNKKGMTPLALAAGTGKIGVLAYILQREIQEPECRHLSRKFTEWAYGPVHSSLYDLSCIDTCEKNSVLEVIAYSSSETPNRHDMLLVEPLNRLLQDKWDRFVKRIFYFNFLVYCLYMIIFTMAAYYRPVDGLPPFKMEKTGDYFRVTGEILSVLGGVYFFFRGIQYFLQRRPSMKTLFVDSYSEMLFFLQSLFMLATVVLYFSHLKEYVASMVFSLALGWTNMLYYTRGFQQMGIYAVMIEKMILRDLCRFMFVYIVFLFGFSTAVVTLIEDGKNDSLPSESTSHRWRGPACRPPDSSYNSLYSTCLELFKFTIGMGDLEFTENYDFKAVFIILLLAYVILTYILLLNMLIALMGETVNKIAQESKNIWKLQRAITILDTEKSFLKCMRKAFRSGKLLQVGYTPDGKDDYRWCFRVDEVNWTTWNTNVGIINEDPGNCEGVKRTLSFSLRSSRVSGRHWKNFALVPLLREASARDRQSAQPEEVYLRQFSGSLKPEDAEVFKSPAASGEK

Row | Compound | IC50
1 | CC1CCCN1c1nc(-c2ccc(F)cc2)cc(-c2ccc(N3CCC(O)CC3)nc2)n1 (stereo not shown) [Compound 1, 1-{5-[6-(4-fluorophenyl)-2-(2-methylpyrrolidin-1-yl)pyrimidin-4-yl]pyridin-2-yl}piperidin-4-ol] | < 1000 nM
2 | CC1CCCN1c1nc(-c2ccc(F)cc2)cc(-c2ccc(N3CCC(C(=O)O)CC3)nc2)n1 (stereo not shown) [Compound 3, 1-{5-[6-(4-fluorophenyl)-2-(2-methylpyrrolidin-1-yl)pyrimidin-4-yl]pyridin-2-yl}piperidine-4-carboxylicacid] | < 1000 nM
3 | Fc1ccc(-c2cc(-c3ccc(-c4ncccc4C(F)(F)F)nc3)nc(N3CCOCC3)n2)cc1Cl [Compound 5, 5′-[6-(3-chloro-4-fluorophenyl)-2-morpholin-4-ylpyrimidin-4-yl]-3-(trifluoromethyl)-2,2′-bipyridine] | < 1000 nM
4 | Cc1cccnc1-c1ccc(-c2cc(-c3ccc(F)c(Cl)c3)nc(N3CCOCC3)n2)cn1 [Compound 6, 5′-[6-(3-chloro-4-fluorophenyl)-2-morpholin-4-ylpyrimidin-4-yl]-3-methyl-2,2′-bipyridine] | < 1000 nM
5 | Nc1nc(-c2ccc(-c3ncccc3C(F)(F)F)cc2)cc(-c2ccc(F)c(Cl)c2)n1 [Compound 8, 4-(3-chloro-4-fluorophenyl)-6-{4-[3(trifluoromethyl)pyridin-2-yl]phenyl}pyrimidin-2-amine] | < 1000 nM
6 | Fc1ccc(-c2cc(-c3ccc(-c4ncccc4C(F)(F)F)cc3)nc(N3CCOCC3)n2)cc1Cl [Compound 9, 4-(4-(3-chloro-4-fluorophenyl)-6-{4-[3-(trifluoromethyl)pyridin-2-yl]phenyl}pyrimidin-2-yl)morpholine] | < 1000 nM

molecular target: T1, human capsaicin receptor; assay: Calcium mobilization assay, determination of agonist activity; format: cell-based; conditions: cells expressing human capsaicin receptor, no capsaicin added, FLUO-3 fluorescence
Procedure: as §1, §2
as §3, with “After the incubation, the dye is emptied from the plates, and the cells are washed once with KRH buffer, and resuspended in KRH buffer.” left out
The ability of a test compound to act as an agonist of the capsaicin receptor is determined by measuring the fluorescence response of cells expressing capsaicin receptors elicited by the compound as function of compound concentration. […] The extent of efficacy of each test compound is also determined by calculating the response elicited by a concentration of test compound (typically 1 μM) relative to the response elicited by 100 nM capsaicin. This value, called Percent of Signal (POS), is calculated by the following equation: […]

Row | Compound | EC50
7 | CC1CCCN1c1nc(-c2ccc(F)cc2)cc(-c2ccc(N3CCC(O)CC3)nc2)n1 (stereo not shown) [Compound 1, 1-{5-[6-(4-fluorophenyl)-2-(2-methylpyrrolidin-1-yl)pyrimidin-4-yl]pyridin-2-yl}piperidin-4-ol] | < 1000 nM
8 | CC1CCCN1c1nc(-c2ccc(F)cc2)cc(-c2ccc(N3CCC(C(N)=O)CC3)nc2)n1 (stereo not shown) [Compound 4, 1-{5-[6-(4-fluorophenyl)-2-(2-methylpyrrolidin-1-yl)pyrimidin-4-yl]pyridin-2-yl}piperidine-4-carboxamide] | < 1000 nM
9 | CC1CCCN1c1nc(-c2ccc(F)cc2)cc(-c2ccc(N3CCC(CO)CC3)nc2)n1 (stereo not shown) [Compound 7, (1-{5-[6-(4-fluorophenyl)-2-(2-methylpyrrolidin-1-yl)pyrimidin-4-yl]pyridin-2-yl}piperidin-4-yl)methanol] | < 1000 nM

molecular target: VR (Homo sapiens, UniProt Q8NER1); assay: not given; conditions: typically; no more than moderate affinity; cited from earlier work
Sequence (Q8NER1 whole entry): as above

Row | Compound | Ki
10 | Cl.Cl.Cl.Cl.Cl.Cl.N.N.N.N.N.N.N.N.N.N.N.N.N.N.[O-2].[O-2].[Ru+3].[Ru+3].[Ru+4] [ruthenium red] | ≥ 140000 nM
